Test results taken from PMC9481570, “A small molecule antagonist of SMN disrupts the interaction between SMN and RNAP II” (Nature Communications, 2022).
“And” between values parts separate entries of the source, which are not always exact repeats. Equal entries are not always repeated.

Legend:
Experiment in all cases: Affinity-purification and mass spectrometry (AP-MS) chemical proteomics, all proteins;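 for Difference: 200 µM free competitor with 20 µM biotin probe overnight in lysate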
Format in all cases: binding
[1] = molecular target: T1, proteins displaced from immobilized biotin-Cmpd 1 pulldowns (U2OS cell lysate) (Homo sapiens, UniProt P40939); conditions: GN=HADHA (P40939)
T1 construct: endogenous in cells; host or cells: U2OS
T1 sequence (P40939 37-763): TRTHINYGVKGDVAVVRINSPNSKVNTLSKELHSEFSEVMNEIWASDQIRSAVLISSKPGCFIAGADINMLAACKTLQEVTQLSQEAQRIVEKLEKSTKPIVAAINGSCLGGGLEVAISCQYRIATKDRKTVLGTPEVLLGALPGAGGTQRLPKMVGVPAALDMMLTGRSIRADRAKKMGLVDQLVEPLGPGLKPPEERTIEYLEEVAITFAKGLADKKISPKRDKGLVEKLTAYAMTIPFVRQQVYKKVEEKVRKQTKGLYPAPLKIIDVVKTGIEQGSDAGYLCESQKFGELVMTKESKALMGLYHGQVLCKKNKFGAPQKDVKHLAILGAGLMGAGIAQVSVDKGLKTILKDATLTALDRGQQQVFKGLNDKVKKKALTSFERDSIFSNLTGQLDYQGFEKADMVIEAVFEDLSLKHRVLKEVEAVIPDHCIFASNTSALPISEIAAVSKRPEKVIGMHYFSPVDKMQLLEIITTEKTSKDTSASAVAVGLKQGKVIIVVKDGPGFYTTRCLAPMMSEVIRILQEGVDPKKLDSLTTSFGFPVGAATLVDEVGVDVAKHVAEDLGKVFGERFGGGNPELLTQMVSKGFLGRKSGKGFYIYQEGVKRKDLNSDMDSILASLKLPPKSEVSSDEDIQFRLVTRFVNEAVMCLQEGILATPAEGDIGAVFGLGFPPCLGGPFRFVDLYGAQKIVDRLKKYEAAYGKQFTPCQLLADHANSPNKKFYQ
Method: (§1) The samples for AP-MS were prepared following pulldown procedure as previously described with minor modifications. Briefly, U2OS cells were lysed in RIPA buffer and the cell lysate was equally divided into two groups: (1) DMSO group (control group): the cell lysate was incubated with 20 μM biotin-labeled compound 1; (2) Cpmd 1 group (sample group): the cell lysate was incubated with 20 μM biotin-labeled compound 1 and 200 μM free compound 1. Each group contains three biological replicates. They were incubated overnight at 4 °C, then 30 μL streptavidin beads (Thermo Fisher, 20353) was added and incubated at 4 °C for 1 h. The beads were then washed with RIPA buffer for 3 times, 10 min/time.
(§2) Beads were rinsed twice with 50 mM TEAB, pH 7.55, before eluting proteins with 25 μL of 5% SDS, 50 mM TEAB, pH 7.55. The sample was then centrifuged at 17,000 × g for 10 min to remove any debris. Proteins were reduced with 20 mM TCEP (Thermo Fisher, 77720) and incubated at 65 °C for 30 min. The sample was cooled to room temperature and 1 μL of 0.5 M iodoacetamide acid was added and allowed to react for 20 min in dark. Phosphoric acid (12%, 2.75 μL) was added to the protein solution, followed by adding 165 μL of binding buffer (90% methanol, 100 mM TEAB, pH 7.1). The resulting solution was added to S-Trap spin column (protifi.com) and passed through the column using a bench top centrifuge (30 s spin at 4000 × g). The spin column was washed with 400 μL of binding buffer and centrifuged. This step was repeated two more times. Then trypsin was added to the protein mixture at a mass ratio of 1:25 in 50 mM TEAB, pH 8.0, and the sample was incubated at 37 °C for 4 h. Peptides were eluted with 80 μL of 50 mM TEAB, followed by 80 μL of 0.2% formic acid, and finally 80 μL of 50% acetonitrile, 0.2% formic acid. The combined peptide solution was then dried in a speed vac and resuspended in 2% acetonitrile, 0.1% formic acid, 97.9% water and placed in an autosampler vial.
(§3) Samples were analyzed by nanoLC-MS/MS (nanoRSLC, Thermo Fisher) using an Aurora series (Ion Opticks) reversed phase HPLC column (25 cm length × 75 µm inner diameter) and directly injected to an Orbitrap Eclipse (Thermo Fisher) using a 120 min gradient (mobile phase A = 0.1% formic acid, mobile phase B = 99.9% acetonitrile with 0.1% formic acid; hold 2% B for 5 min, 2–6% B in 0.1 min, 6–25% in 100 min, 25–50% in 15 min) at a flow rate of 350 nL/min. Eluted peptide ions were analyzed using a data-dependent acquisition (DDA) method with resolution settings of 120,000 and 15,000 (at m/z 200) for MS1 and MS2 scans, respectively. DDA-selected peptides were fragmented using stepped high energy collisional dissociation (27, 32, and 37%).
(§4) The data of AP-MS were analyzed as a previously described method with minor modifications. Briefly, the raw MS files were searched with MaxQuant software (version 1.6.1.1, www.maxquant.org)[56] against the UniProt human protein database (www.uniprot.org) concatenated with common contaminants and the decoy database. The mass tolerance for precursor ions was set to 20 ppm and 4.5 ppm for the first and main search, respectively. The cysteine carbamidomethylation was set as fixed modification and methionine oxidation and N-terminal acetylation as variable modifications. Enzyme specificity was set to trypsin and a maximum missed cleavage was set as 2. The 1% false discovery rate (FDR) at both peptide and protein levels was applied for the analysis. Relative protein quantification was based on the label-free quantification incorporated in the MaxQuant software. The iBAQ intensity of proteins was obtained for the control and experimental samples. The missing iBAQ intensity was replaced by a random number, which was calculated from a normal distribution with a width of 0.3 and a downshift of 1.8 defined by Perseus software (version 1.6.5.0). The P-value was calculated by performing two-sample Student’s t-test. […]

[2] = molecular target: T2, proteins displaced from immobilized biotin-Cmpd 1 pulldowns (U2OS cell lysate) (Homo sapiens, UniProt Q02880); conditions: GN=TOP2B (Q02880)
T2 construct: endogenous in cells; host or cells: U2OS
T2 sequence (Q02880 whole entry): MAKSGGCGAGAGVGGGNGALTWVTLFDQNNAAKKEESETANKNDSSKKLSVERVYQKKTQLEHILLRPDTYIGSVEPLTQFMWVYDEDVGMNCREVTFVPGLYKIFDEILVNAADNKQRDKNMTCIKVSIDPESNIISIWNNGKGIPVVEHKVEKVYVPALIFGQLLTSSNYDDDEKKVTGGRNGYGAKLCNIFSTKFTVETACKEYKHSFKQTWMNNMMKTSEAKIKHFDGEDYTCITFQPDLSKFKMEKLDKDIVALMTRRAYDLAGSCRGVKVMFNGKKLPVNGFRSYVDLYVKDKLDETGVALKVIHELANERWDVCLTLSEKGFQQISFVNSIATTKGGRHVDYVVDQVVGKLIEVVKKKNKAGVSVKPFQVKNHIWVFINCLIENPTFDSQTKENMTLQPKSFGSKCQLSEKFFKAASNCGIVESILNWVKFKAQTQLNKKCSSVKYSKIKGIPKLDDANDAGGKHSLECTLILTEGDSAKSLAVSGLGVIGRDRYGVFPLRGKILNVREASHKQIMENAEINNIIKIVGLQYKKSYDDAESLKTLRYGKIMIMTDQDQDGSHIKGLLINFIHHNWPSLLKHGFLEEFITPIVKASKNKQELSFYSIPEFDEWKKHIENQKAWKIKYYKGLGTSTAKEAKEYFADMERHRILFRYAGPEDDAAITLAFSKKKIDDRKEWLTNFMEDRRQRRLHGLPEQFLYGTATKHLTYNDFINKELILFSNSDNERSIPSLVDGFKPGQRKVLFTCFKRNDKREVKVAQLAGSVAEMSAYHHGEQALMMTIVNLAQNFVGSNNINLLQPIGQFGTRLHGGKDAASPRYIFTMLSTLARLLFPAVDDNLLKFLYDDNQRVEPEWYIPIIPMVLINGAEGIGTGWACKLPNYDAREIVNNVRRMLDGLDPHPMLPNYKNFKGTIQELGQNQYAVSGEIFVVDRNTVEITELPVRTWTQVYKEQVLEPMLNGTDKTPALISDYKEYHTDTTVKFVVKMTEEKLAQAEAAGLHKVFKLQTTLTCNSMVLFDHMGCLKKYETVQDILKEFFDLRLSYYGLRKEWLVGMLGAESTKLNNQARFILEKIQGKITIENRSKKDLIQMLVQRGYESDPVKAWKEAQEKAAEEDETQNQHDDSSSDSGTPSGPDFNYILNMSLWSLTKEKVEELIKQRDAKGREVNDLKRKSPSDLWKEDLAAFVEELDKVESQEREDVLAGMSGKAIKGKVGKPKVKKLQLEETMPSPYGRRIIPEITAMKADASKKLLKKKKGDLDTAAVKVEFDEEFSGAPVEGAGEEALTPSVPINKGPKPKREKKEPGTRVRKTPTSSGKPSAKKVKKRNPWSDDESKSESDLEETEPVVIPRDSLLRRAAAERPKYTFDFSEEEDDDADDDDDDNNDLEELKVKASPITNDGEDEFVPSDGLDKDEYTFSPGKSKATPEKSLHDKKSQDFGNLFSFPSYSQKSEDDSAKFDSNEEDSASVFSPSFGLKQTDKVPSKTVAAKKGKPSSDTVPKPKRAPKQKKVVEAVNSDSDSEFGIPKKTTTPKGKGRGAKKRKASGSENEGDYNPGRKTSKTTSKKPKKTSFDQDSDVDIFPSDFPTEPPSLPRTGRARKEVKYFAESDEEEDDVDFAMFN
Method: as §1, §2, §3, §4

[3] = molecular target: T3, proteins displaced from immobilized biotin-Cmpd 1 pulldowns (U2OS cell lysate) (Homo sapiens, UniProt Q9UNF1); conditions: GN=MAGED2 (Q9UNF1)
T3 construct: endogenous in cells; host or cells: U2OS
T3 sequence (Q9UNF1 whole entry): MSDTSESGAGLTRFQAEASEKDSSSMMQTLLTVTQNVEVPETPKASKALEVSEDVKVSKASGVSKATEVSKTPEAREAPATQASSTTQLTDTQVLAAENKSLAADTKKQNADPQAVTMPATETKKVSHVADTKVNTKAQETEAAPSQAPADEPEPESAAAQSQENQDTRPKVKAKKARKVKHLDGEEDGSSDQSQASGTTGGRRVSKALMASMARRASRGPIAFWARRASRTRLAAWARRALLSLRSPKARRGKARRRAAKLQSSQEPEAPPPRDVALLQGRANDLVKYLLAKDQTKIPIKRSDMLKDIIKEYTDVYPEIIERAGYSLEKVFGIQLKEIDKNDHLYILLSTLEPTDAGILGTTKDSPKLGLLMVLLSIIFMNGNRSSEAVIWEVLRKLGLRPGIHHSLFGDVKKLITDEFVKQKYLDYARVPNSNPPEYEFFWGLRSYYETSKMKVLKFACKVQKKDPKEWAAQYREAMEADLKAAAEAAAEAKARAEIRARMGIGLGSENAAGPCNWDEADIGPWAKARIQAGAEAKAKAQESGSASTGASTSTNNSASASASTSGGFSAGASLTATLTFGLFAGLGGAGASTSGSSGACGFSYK
Method: as §1, §2, §3, §4

[4] = molecular target: T4, proteins displaced from immobilized biotin-Cmpd 1 pulldowns (U2OS cell lysate) (Homo sapiens, UniProt O15213); conditions: GN=WDR46 (O15213)
T4 construct: endogenous in cells; host or cells: U2OS
T4 sequence (O15213 whole entry): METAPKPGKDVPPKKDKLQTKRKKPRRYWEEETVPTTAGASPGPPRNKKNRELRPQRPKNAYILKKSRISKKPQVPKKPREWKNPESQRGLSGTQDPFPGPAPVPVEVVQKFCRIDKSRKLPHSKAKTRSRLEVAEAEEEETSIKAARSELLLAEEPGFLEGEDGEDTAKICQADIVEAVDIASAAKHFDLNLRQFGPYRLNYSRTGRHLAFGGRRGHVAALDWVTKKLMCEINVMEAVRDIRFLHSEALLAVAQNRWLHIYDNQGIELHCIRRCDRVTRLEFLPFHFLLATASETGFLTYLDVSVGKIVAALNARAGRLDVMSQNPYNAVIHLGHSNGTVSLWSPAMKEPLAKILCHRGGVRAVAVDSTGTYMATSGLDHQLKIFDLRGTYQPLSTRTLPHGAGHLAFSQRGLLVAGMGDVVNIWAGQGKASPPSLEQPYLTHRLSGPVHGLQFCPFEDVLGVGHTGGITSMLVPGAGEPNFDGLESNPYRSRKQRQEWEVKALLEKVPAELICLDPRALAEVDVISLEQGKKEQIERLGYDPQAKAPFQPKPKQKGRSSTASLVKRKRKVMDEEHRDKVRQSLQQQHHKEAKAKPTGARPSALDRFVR
Method: as §1, §2, §3, §4

[5] = molecular target: T5, proteins displaced from immobilized biotin-Cmpd 1 pulldowns (U2OS cell lysate) (Homo sapiens, UniProt Q6ZVX7); conditions: GN=NCCRP1 (Q6ZVX7)
T5 construct: endogenous in cells; host or cells: U2OS
T5 sequence (Q6ZVX7 whole entry): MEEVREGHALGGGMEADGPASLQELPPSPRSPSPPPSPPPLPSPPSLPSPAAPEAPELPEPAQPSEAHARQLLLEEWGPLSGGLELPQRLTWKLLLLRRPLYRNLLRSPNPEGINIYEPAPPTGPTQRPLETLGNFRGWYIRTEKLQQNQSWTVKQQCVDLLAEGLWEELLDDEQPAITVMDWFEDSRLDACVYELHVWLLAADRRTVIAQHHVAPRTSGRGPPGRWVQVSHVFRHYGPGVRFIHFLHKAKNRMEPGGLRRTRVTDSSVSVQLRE
Method: as §1, §2, §3, §4

[6] = molecular target: T6, proteins displaced from immobilized biotin-Cmpd 1 pulldowns (U2OS cell lysate) (Homo sapiens, UniProt P25789); conditions: GN=PSMA4 (P25789)
T6 construct: endogenous in cells; host or cells: U2OS
T6 sequence (P25789 whole entry): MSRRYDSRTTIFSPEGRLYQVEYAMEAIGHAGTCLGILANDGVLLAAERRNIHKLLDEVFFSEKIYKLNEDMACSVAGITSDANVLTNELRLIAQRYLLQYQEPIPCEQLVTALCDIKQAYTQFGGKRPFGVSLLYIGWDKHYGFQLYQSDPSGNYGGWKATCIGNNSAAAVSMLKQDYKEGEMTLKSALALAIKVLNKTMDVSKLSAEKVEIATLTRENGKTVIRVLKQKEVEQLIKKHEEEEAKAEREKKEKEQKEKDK
Method: as §1, §2, §3, §4

[7] = molecular target: T7, proteins displaced from immobilized biotin-Cmpd 1 pulldowns (U2OS cell lysate) (Homo sapiens, UniProt P42357); conditions: GN=HAL (P42357)
T7 construct: endogenous in cells; host or cells: U2OS
Method: as §1, §2, §3, §4

[8] = molecular target: T8, proteins displaced from immobilized biotin-Cmpd 1 pulldowns (U2OS cell lysate) (Homo sapiens, UniProt Q96HE9); conditions: GN=PRR11 (Q96HE9)
T8 construct: endogenous in cells; host or cells: U2OS
T8 sequence (Q96HE9 whole entry): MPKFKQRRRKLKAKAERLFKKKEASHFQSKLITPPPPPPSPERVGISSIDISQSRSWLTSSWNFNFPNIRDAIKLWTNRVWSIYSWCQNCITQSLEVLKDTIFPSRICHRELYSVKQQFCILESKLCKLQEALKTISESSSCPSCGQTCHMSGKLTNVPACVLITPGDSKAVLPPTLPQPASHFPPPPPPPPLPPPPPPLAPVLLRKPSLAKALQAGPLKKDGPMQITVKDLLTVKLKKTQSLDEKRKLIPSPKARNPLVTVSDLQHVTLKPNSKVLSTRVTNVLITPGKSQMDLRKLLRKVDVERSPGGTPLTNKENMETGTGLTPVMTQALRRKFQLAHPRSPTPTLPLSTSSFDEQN
Method: as §1, §2, §3, §4

[9] = molecular target: T9, proteins displaced from immobilized biotin-Cmpd 1 pulldowns (U2OS cell lysate) (Homo sapiens, UniProt Q9NQC3); conditions: GN=RTN4 (Q9NQC3)
T9 construct: endogenous in cells; host or cells: U2OS
Method: as §1, §2, §3, §4

[10] = molecular target: T10, proteins displaced from immobilized biotin-Cmpd 1 pulldowns (U2OS cell lysate) (Homo sapiens, UniProt Q9BZG1); conditions: GN=RAB34 (Q9BZG1)
T10 construct: endogenous in cells; host or cells: U2OS
T10 sequence (Q9BZG1 whole entry): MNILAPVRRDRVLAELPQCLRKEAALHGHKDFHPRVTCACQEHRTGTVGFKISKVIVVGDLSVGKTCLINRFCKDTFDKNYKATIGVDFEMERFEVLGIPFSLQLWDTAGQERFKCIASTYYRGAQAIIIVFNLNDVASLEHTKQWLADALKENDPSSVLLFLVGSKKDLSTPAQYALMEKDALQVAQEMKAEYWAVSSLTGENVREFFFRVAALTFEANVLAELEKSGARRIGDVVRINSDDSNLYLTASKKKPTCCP
Method: as §1, §2, §3, §4

SMILES: Cn1c2c(c(=N)c3c1CCC3)CCC2 [Compound 1, 4-methyl-2,3,4,5,6,7-hexahydrodicyclopenta[b,e]pyridin-8(1H)-imine]
- Difference ([1]; Cmpd minus DMSO, -LOG(P-value) 0.714126): 0.947
- iBAQ Cmpd ([1]; replicates 1-3): 19.348 and 18.8178 and 18.412
- Difference ([2]; Cmpd minus DMSO, -LOG(P-value) 0.742976): 1.036
- iBAQ Cmpd ([2]; replicates 1-3): 16.8685 and 16.1972 and 16.6057
- Difference ([3]; Cmpd minus DMSO, -LOG(P-value) 0.822167): 0.7403
- iBAQ Cmpd ([3]; replicates 1-3): 20.5058 and 20.3034 and 20.4789
- Difference ([4]; Cmpd minus DMSO, -LOG(P-value) 1.25579): -1.697
- iBAQ Cmpd ([4]; replicates 1-3): 17.4002 and 17.0091 and 16.4289
- Difference ([5]; Cmpd minus DMSO, -LOG(P-value) 1.30206): -3.138
- iBAQ Cmpd ([5]; replicates 1-3): 15.2988 and 15.7784 and 15.638
- Difference ([6]; Cmpd minus DMSO, -LOG(P-value) 1.07686): -2.957
- iBAQ Cmpd ([6]; replicates 1-3): 18.482 and 14.8891 and 15.1338
- Difference ([7]; Cmpd minus DMSO, -LOG(P-value) 1.13561): -1.443
- iBAQ Cmpd ([7]; replicates 1-3): 15.8179 and 16.0542 and 14.8398
- Difference ([8]; Cmpd minus DMSO, -LOG(P-value) 0.979867): 2.154
- iBAQ Cmpd ([8]; replicates 1-3): 17.2458 and 16.9213 and 18.1218
- Difference ([9]; Cmpd minus DMSO, -LOG(P-value) 0.85719): 2.734
- iBAQ Cmpd ([9]; replicates 1-3): 19.1423 and 18.4673 and 18.3569
- Difference ([10]; Cmpd minus DMSO, -LOG(P-value) 1.66704): 2.667
- iBAQ Cmpd ([10]; replicates 1-3): 18.8001 and 17.2488 and 16.5904
